1 molecule from ChEMBL document CHEMBL4433249, “New sensible method to quantize the intestinal absorption of receptor ligands” (Bioorg Med Chem, 2019) can be followed below.

Data set [1] is described as follows: Drug absorption in Wistar rat small intestinal serosal fluid assessed as displacement of [3H]HEMADO from recombinant human A3 receptor expressed in CHO cells at 300 nM exposed to serosal fluid derived from 60 mins compound treated sac followed by further incubation for 3 hrs by scintillation counting based radioligand binding assay. In kind it is cell-based. The settings on record: 0.3 µM. (In general: In a radioligand displacement assay an active substance lowers the binding of a labelled ligand.)

A short description of data set [2]: Drug absorption in Wistar rat everted gut sac at 1000 nM. It counts as ADME, tissue-based, Intestine. The conditions noted are these: 1 µM.
Data set [3] in a line: Drug absorption in Wistar rat small intestinal serosal fluid assessed as displacement of [3H]HEMADO from recombinant human A3 receptor expressed in CHO cells at 3000 nM exposed to serosal fluid derived from 60 mins compound treated sac followed by further incubation for 3 hrs by scintillation counting based radioligand binding assay. It counts as cell-based. The conditions noted are these: 3 µM.

Data set [4] in a line: Apparent permeability of the compound across Wistar rat everted gut sac at 1000 nM. In kind it is ADME, tissue-based, Intestine.
The nature of data set [5]: Drug absorption in Wistar rat small intestinal mucosal fluid assessed as displacement of [3H]HEMADO from recombinant human A3 receptor expressed in CHO cells at 300 nM exposed to mucosal fluid derived from 60 mins compound treated sac followed by further incubation for 3 hrs by scintillation counting based radioligand binding assay. It counts as cell-based, Mucosa of small intestine. The conditions noted are these: 0.3 µM.

Data set [6] in a line: Drug absorption in Wistar rat everted gut sac at 10000 nM. The conditions noted are these: 10 µM. In kind it is ADME, tissue-based, Intestine.
Data set [7] is described as follows: Drug retention in Wistar rat everted gut sac at 3000 nM. The settings on record: 3 µM. In kind it is ADME, tissue-based, Intestine.
Data set [8] is described as follows: Drug absorption in Wistar rat small intestinal serosal fluid at 3000 nM incubated for 60 mins by HPLC-DAD analysis. It counts as ADME. The conditions noted are these: 1 h, 3 µM.
Data set [9] in a line: Drug retention in Wistar rat everted gut sac at 10000 nM. In kind it is ADME, tissue-based, Intestine. The settings on record: 10 µM.
Data set [10] can be described thus: Drug absorption in Wistar rat everted gut sac at 300 nM. It counts as ADME, tissue-based, Intestine. The conditions noted are these: 0.3 µM.
A short description of data set [11]: Apparent permeability of the compound across Wistar rat everted gut sac at 3000 nM. It counts as ADME, tissue-based, Intestine.
Data set [12] is described as follows: Drug absorption in Wistar rat small intestinal mucosal fluid assessed as displacement of [3H]HEMADO from recombinant human A3 receptor expressed in CHO cells at 3000 nM exposed to mucosal fluid derived from 60 mins compound treated sac followed by further incubation for 3 hrs by scintillation counting based radioligand binding assay. It counts as cell-based, Mucosa of small intestine. The settings on record: 3 µM.

The nature of data set [13]: Drug absorption in Wistar rat small intestinal mucosal fluid assessed as displacement of [3H]HEMADO from recombinant human A3 receptor expressed in CHO cells at 10000 nM exposed to mucosal fluid derived from 60 mins compound treated sac followed by further incubation for 3 hrs by scintillation counting based radioligand binding assay. In kind it is cell-based, Mucosa of small intestine. The settings on record: 10 µM.

Data set [14] can be described thus: Drug absorption in Wistar rat small intestinal serosal fluid assessed as displacement of [3H]HEMADO from recombinant human A3 receptor expressed in CHO cells at 1000 nM exposed to serosal fluid derived from 60 mins compound treated sac followed by further incubation for 3 hrs by scintillation counting based radioligand binding assay. In kind it is cell-based. The conditions noted are these: 1 µM.

Data set [15] in a line: Drug absorption in Wistar rat small intestinal serosal fluid assessed as displacement of [3H]HEMADO from recombinant human A3 receptor expressed in CHO cells at 10000 nM exposed to serosal fluid derived from 60 mins compound treated sac followed by further incubation for 3 hrs by scintillation counting based radioligand binding assay. In kind it is cell-based. The settings on record: 10 µM.

Data set [16] can be described thus: Apparent permeability of the compound across Wistar rat everted gut sac at 300 nM. It counts as ADME, tissue-based, Intestine.
Data set [17] in a line: Drug absorption in Wistar rat small intestinal serosal fluid at 10000 nM incubated for 60 mins by HPLC-DAD analysis. In kind it is ADME. The settings on record: 1 h, 10 µM.
Data set [18] is described as follows: Drug absorption in Wistar rat everted gut sac at 3000 nM. In kind it is ADME, tissue-based, Intestine. The settings on record: 3 µM.
Data set [19] in a line: Drug retention in Wistar rat everted gut sac at 1000 nM. In kind it is ADME, tissue-based, Intestine. The conditions noted are these: 1 µM.
Data set [20] in a line: Apparent permeability of the compound across Wistar rat everted gut sac at 10000 nM. In kind it is ADME, tissue-based, Intestine.
Data set [21] can be described thus: Drug retention in Wistar rat everted gut sac at 300 nM. It counts as ADME, tissue-based, Intestine. The settings on record: 0.3 µM.
The nature of data set [22]: Drug absorption in Wistar rat small intestinal mucosal fluid assessed as displacement of [3H]HEMADO from recombinant human A3 receptor expressed in CHO cells at 1000 nM exposed to mucosal fluid derived from 60 mins compound treated sac followed by further incubation for 3 hrs by scintillation counting based radioligand binding assay. It counts as cell-based, Mucosa of small intestine. The conditions noted are these: 1 µM.

As usually defined, the Papp is a coefficient for how fast a substance crosses the barrier. Regarding `CNC(=O)[C@H]1O[C@@H](n2cnc3c(NC)nc(C#Cc4ccccc4)nc32)[C@H](O)[C@@H]1O`, the Drug absorption in data set [1] is on record as 36 nM; in [2], 11.9%; in data set [3] it was 373 nM; in [5], 133 nM; in data set [6], 11.8%; in data set [8] it was 550 nM. Besides, the Drug absorption in data set [10] was determined as 12%; in data set [12], 857 nM; in data set [13], 2088 nM; in data set [14], 119 nM; in [15] it was 1180 nM; in [17], 2000 nM. The results for the Drug absorption in data set [18] and in [22] were 12.4% and 224 nM, respectively. Further, the Papp at 1 µM in data set [4] worked out at 8.4 ×10⁻⁶ cm/s. For the same molecule, the Drug uptake was 59% in [7], 67% in [9], 65% in data set [19] and 44% in data set [21]. Further, the Papp at 3 µM in data set [11] was 8.5 ×10⁻⁶ cm/s. Further, the apparent permeability (Papp) at 0.3 µM in data set [16] came out at 8.5 ×10⁻⁶ cm/s. In addition, the Papp at 10 µM in data set [20] came to 8.4 ×10⁻⁶ cm/s.
